{
  "source": "ChEMBL document CHEMBL1125295",
  "about": "“Synthesis and some pharmacological properties of potent and selective antagonists of the vasopressor (V1-receptor) response to arginine-vasopressin” (J Med Chem, 1992)",
  "key": {"[1]": {"biological_target": "Vasopressin V2 receptor (Rattus norvegicus) (UniProt Q00788)", "sequence (Q00788 whole entry)": "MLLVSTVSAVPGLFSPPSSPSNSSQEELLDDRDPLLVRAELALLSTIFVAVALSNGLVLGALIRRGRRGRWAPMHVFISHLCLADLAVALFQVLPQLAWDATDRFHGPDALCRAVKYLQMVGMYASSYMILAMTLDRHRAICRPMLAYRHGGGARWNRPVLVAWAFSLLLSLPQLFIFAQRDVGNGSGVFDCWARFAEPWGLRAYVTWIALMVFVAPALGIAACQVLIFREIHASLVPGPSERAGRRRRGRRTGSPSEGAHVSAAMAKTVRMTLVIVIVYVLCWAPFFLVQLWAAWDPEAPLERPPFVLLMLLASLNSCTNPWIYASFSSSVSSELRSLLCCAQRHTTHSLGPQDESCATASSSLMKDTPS", "assay": "Antidiuretic activity in water-loaded rats"}, "[2]": {"biological_target": "Vasopressin V1 receptor (Rattus norvegicus) (UniProt P48974+P30560)", "sequence (P30560 whole entry, looked up)": "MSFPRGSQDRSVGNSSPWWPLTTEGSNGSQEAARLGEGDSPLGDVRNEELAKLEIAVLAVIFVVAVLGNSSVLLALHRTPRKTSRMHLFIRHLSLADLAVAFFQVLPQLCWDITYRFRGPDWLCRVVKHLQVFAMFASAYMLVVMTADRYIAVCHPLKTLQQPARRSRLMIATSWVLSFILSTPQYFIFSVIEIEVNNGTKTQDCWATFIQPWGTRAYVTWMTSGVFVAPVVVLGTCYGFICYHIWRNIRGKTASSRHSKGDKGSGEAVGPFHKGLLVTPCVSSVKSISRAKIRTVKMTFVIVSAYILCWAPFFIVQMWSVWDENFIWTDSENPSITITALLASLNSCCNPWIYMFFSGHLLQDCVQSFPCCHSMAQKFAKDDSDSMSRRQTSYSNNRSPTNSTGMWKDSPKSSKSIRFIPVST", "sequence (P48974 whole entry, looked up)": "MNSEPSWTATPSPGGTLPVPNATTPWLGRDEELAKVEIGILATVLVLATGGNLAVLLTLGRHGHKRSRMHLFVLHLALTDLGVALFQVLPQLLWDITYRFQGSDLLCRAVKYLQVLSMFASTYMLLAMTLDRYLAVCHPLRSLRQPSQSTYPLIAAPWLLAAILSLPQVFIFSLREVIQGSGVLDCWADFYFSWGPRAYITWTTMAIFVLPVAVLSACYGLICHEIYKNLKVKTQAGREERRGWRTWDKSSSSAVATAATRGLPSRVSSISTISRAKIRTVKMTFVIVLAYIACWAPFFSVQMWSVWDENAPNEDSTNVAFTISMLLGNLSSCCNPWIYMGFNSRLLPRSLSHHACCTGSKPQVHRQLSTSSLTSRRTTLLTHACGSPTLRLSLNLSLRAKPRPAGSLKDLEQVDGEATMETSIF", "assay": "Dose that reduces blood pressure response in rats", "format": "functional"}, "[3]": {"assay": "Ratio of antidiuretic V2 effective dose to that of vasopressin V1 effective dose", "format": "functional, Urine"}, "[4]": {"biological_target": "Vasopressin V2 receptor (Rattus norvegicus) (UniProt Q00788)", "assay": "Dose that reduces urine flow in water-loaded rats", "format": "functional"}},
  "note": "*1 amine or outer side, *2 acyl side, *3 side chain or, on linkers, in order; H or OH if unused. Where a SMILES comes first, the peptide text is derived from it. Bridges are numbered along the chain shown (N, C = ends). [ ]: non-standard residue; d: D form. NMeY = CN[C@@H](Cc1ccc(O)cc1)C(=O)O; X1 = O=C(CC1(S[*:2])CCCCC1)[*:1]",
  "data": [
    {"smiles": "CN1C(=O)CC(C)(C)SSC[C@H](C(=O)N2CCC[C@H]2C(=O)N[C@@H](CCCN=C(N)N)C(=O)N[C@@H](Cc2ccc(O)cc2)C(N)=O)NC(=O)[C@@H](CC(N)=O)NC(=O)[C@H](CCC(N)=O)NC(=O)[C@@H](Cc2ccccc2)NC(=O)[C@@H]1Cc1ccc(O)cc1", "values": [
      {"measurement": "Antidiuretic activity", "setting": "[1]", "result": 0.029, "unit": "units/mg"},
      {"measurement": "Effective dose", "setting": "[2]", "result": 0.38, "unit": "nM/kg"}
    ]},
    {"smiles": "CN1C(=O)CC2(CCCCC2)SSC[C@H](C(=O)N2CCC[C@H]2C(=O)N[C@@H](CCCN=C(N)N)C(=O)NCC(N)=O)NC(=O)[C@H](CC(N)=O)NC(=O)[C@H](CCC(N)=O)NC(=O)[C@H](Cc2ccccc2)NC(=O)[C@@H]1Cc1ccc(O)cc1", "note": "([NMeY]FQN[dC]PRG-NH2; linker N-5 via X1)", "values": [
      {"measurement": "Antidiuretic activity", "setting": "[1]", "result": 0.31, "unit": "units/mg"},
      {"measurement": "Effective dose", "setting": "[2]", "result": 0.16, "unit": "nM/kg"}
    ]},
    {"smiles": "CN1C(=O)CC(C)(C)SSC[C@H](C(=O)N2CCC[C@H]2C(=O)N[C@@H](CCCN=C(N)N)C(=O)N[C@@H](CCCN=C(N)N)C(N)=O)NC(=O)[C@@H](CC(N)=O)NC(=O)[C@H](CCC(N)=O)NC(=O)[C@@H](Cc2ccccc2)NC(=O)[C@@H]1Cc1ccc(O)cc1", "values": [
      {"measurement": "Antidiuretic activity", "setting": "[1]", "result": 0.083, "unit": "units/mg"}
    ]},
    {"smiles": "CN1C(=O)CC2(CCCCC2)SSC[C@H](C(=O)N2CCC[C@H]2C(=O)N[C@@H](CCCN=C(N)N)C(=O)N[C@@H](CCCN=C(N)N)C(N)=O)NC(=O)[C@@H](CC(N)=O)NC(=O)[C@H](CCC(N)=O)NC(=O)[C@@H](Cc2ccccc2)NC(=O)[C@@H]1Cc1ccc(O)cc1", "values": [
      {"measurement": "Ratio", "setting": "[3]", "result": "~150"},
      {"measurement": "Effective dose", "setting": "[4]", "result": 18, "unit": "nM/kg"},
      {"measurement": "Effective dose", "setting": "[2]", "result": 0.12, "unit": "nM/kg"}
    ]},
    {"smiles": "CNC(=O)[C@H](CCCN=C(N)N)NC(=O)[C@@H]1CCCN1C(=O)[C@H]1CSSC2(CCCCC2)CC(=O)N(C)[C@@H](Cc2ccc(O)cc2)C(=O)N[C@H](Cc2ccccc2)C(=O)N[C@@H](CCC(N)=O)C(=O)N[C@H](CC(N)=O)C(=O)N1", "values": [
      {"measurement": "Effective dose", "setting": "[4]", "result": 84, "unit": "nM/kg"},
      {"measurement": "Effective dose", "setting": "[2]", "result": 0.12, "unit": "nM/kg"}
    ]},
    {"smiles": "C[C@H](NC(=O)[C@H](CCCN=C(N)N)NC(=O)[C@@H]1CCCN1C(=O)[C@H]1CSSC2(CCCCC2)CC(=O)N(C)[C@@H](Cc2ccc(O)cc2)C(=O)N[C@H](Cc2ccccc2)C(=O)N[C@@H](CCC(N)=O)C(=O)N[C@H](CC(N)=O)C(=O)N1)C(N)=O", "values": [
      {"measurement": "Effective dose", "setting": "[4]", "result": 77, "unit": "nM/kg"},
      {"measurement": "Effective dose", "setting": "[2]", "result": 0.13, "unit": "nM/kg"}
    ]},
    {"smiles": "CC(C)[C@H](NC(=O)[C@H](CCCN=C(N)N)NC(=O)[C@@H]1CCCN1C(=O)[C@H]1CSSC(C)(C)CC(=O)N(C)[C@@H](Cc2ccc(O)cc2)C(=O)N[C@H](Cc2ccccc2)C(=O)N[C@@H](CCC(N)=O)C(=O)N[C@H](CC(N)=O)C(=O)N1)C(N)=O", "values": [
      {"measurement": "Antidiuretic activity", "setting": "[1]", "result": 0.039, "unit": "units/mg"},
      {"measurement": "Effective dose", "setting": "[2]", "result": 0.6, "unit": "nM/kg"}
    ]}
  ]
}
